pIC50: −log10 of the molar value.
Tested on: 931267-113-T-J1-PDC KRAS spheroid with HUVEC/MSC, viability
Assay: Anticancer human tumor 931267-113-T-J1-PDC patient-derived colon adenocarcinoma cell line growth inhibition [KRAS2]
Settings: for pIC50: curve of first compound; for viability, T/C: stronger effect = lower value
Procedure, shortened: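 Combination screen of spheroid viability in tumor-cell co-cultures with endothelial (HUVEC) and mesenchymal stem cell stroma. Each agent was tested in half-log dilutions, topping at clinical Cmax or at 10 microM without a known Cmax.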

[1] = second compound 0.1 µM, first compound 0.0316 µM
[2] = second compound 0.1 µM, first compound 0.1 µM
[3] = second compound 0.1 µM, first compound 0.316 µM
[4] = second compound 0.1 µM, first compound 1 µM
[5] = second compound 0.1 µM, first compound 3.16 µM
[6] = second compound 0.316 µM, first compound 0.0316 µM
[7] = second compound 0.316 µM, first compound 0.1 µM
[8] = second compound 0.316 µM, first compound 0.316 µM
[9] = second compound 0.316 µM, first compound 1 µM
[10] = second compound 0.316 µM, first compound 3.16 µM
[11] = second compound 1 µM, first compound 0.0316 µM
[12] = second compound 1 µM, first compound 0.1 µM
[13] = second compound 1 µM, first compound 0.316 µM
[14] = second compound 1 µM, first compound 1 µM
[15] = second compound 1 µM, first compound 3.16 µM
[16] = second compound 3.16 µM, first compound 0.0316 µM
[17] = second compound 3.16 µM, first compound 0.1 µM
[18] = second compound 3.16 µM, first compound 0.316 µM
[19] = second compound 3.16 µM, first compound 1 µM
[20] = second compound 3.16 µM, first compound 3.16 µM
[21] = second compound 10 µM, first compound 0.0316 µM
[22] = second compound 10 µM, first compound 0.1 µM
[23] = second compound 10 µM, first compound 0.316 µM
[24] = second compound 10 µM, first compound 1 µM
[25] = second compound 10 µM, first compound 3.16 µM
[26] = second compound 0.1 µM, first compound 10 µM
[27] = second compound 0.316 µM, first compound 10 µM
[28] = second compound 1 µM, first compound 10 µM
[29] = second compound 3.16 µM, first compound 10 µM
[30] = second compound 10 µM, first compound 10 µM
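Further: compound exposure lasted 7 days before the readout.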
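Wherever viability, T/C is given: 100% = DMSO vehicle control viability.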

Row | Compound | pIC50 (second compound 0.1 µM) | pIC50 (second compound 0.316 µM) | pIC50 (second compound 1 µM) | pIC50 (second compound 3.16 µM) | pIC50 (second compound 10 µM) | viability, T/C [1] | viability, T/C [2] | viability, T/C [3] | viability, T/C [4] | viability, T/C [5] | viability, T/C [6] | viability, T/C [7] | viability, T/C [8] | viability, T/C [9] | viability, T/C [10] | viability, T/C [11] | viability, T/C [12] | viability, T/C [13] | viability, T/C [14] | viability, T/C [15] | further results
1 | CC1COCCN1c1cc(-c2ccnn2C)c2ccnc(-c3ccn[nH]3)c2n1 (stereo not given) + COc1cc2nc(C)nc(NC(C)c3cc(N)cc(C(F)(F)F)c3)c2cc1OC1CCOC1 | 7.34 | 7.37 | 7.55 | 7.48 | > 8.00 | 61.2% | 25% | 19.5% | 15.1% | 15.2% | 59.3% | 24.5% | 17.8% | 15.4% | 15.3% | 46.6% | 24.1% | 13.6% | 17.7% | 15.9% | viability, T/C (second compound 0.1 µM, first compound 0.01 µM): 75.4%; viability, T/C (second compound 0.316 µM, first compound 0.01 µM): 83.4%; viability, T/C (second compound 1 µM, first compound 0.01 µM): 76.3%; viability, T/C (second compound 3.16 µM, first compound 0.01 µM): 70.4%; viability, T/C [16]: 51.6%; viability, T/C [17]: 16.2%; viability, T/C [18]: 11.2%; viability, T/C [19]: 15%; viability, T/C [20]: 14%; viability, T/C (second compound 10 µM, first compound 0.01 µM): 1.71%; viability, T/C [21]: 2.62%; viability, T/C [22]: 3.95%; viability, T/C [23]: 1.66%; viability, T/C [24]: 2.29%; viability, T/C [25]: 1.1%
2 | CC1OCC2(CCN(c3cnc(Sc4ccnc(N)c4Cl)c(N)n3)CC2)C1N (stereo not given) + COc1cc2nc(C)nc(NC(C)c3cc(N)cc(C(F)(F)F)c3)c2cc1OC1CCOC1 | < 5.00 | < 5.00 | < 5.00 | < 5.00 | > 7.50 | 79.3% | 59% | 75.5% | 77.5% | 68.3% | 62.2% | 56.1% | 65% | 68.1% | 70.6% | 70.6% | 72.8% | 56% | 63.1% | 79% | viability, T/C [26]: 90.7%; viability, T/C [27]: 77.9%; viability, T/C [28]: 64.9%; viability, T/C [16]: 70.7%; viability, T/C [17]: 49.8%; viability, T/C [18]: 51.8%; viability, T/C [19]: 54.9%; viability, T/C [20]: 61.4%; viability, T/C [29]: 67.6%; viability, T/C [21]: 3.02%; viability, T/C [22]: 2.08%; viability, T/C [23]: 4.77%; viability, T/C [24]: 2.12%; viability, T/C [25]: 2.08%; viability, T/C [30]: 0.42%
3 | Cn1nccc1Nc1nccc(-c2cc3c(s2)C(C)(C)N(CCN2CCOCC2)C3=O)n1 + COc1cc2nc(C)nc(NC(C)c3cc(N)cc(C(F)(F)F)c3)c2cc1OC1CCOC1 | 6.35 | 6.29 | 6.33 | 6.64 | > 7.50 | 80.2% | 95.3% | 54% | 29.5% | 9.12% | 84.6% | 88.2% | 62.7% | 31.2% | 4.2% | 79.8% | 73.6% | 62.6% | 26.2% | 8.33% | viability, T/C [26]: 3.49%; viability, T/C [27]: 2.13%; viability, T/C [28]: 2.61%; viability, T/C [16]: 71.3%; viability, T/C [17]: 68.4%; viability, T/C [18]: 42.4%; viability, T/C [19]: 15.5%; viability, T/C [20]: 3.42%; viability, T/C [29]: 2.28%; viability, T/C [21]: 3.64%; viability, T/C [22]: 2.94%; viability, T/C [23]: 2.42%; viability, T/C [24]: 1.97%; viability, T/C [25]: 0.91%; viability, T/C [30]: 0.28%
